Key:
[1] = tested on: MCF-7 human breast cancer cells; experiment: CELLTITER-GLO luminescent cell viability assay; assay type: cell-based; details: MCF7, 192 h, MCF-7 cells, 8 days, read-out: EC50 (Effect on Cell Viability)
Experimental: A CELLTITER-GLO luminescent cell viability assay was carried out using MCF-7 human breast cancer cells under the normal growth condition. The MCF-7 human breast cancer cells were grown at 37° C. in a 5% CO2 humidified incubator in EMEM, supplemented 10% FBS, 0.01 mg/mL bovine insulin. The cells were seeded at a 3,000 cells/well in a 96-well tissue culture plate. The cells were allowed to adhere overnight in the incubator. A compound (5 μL) in a medium at a predetermined concentration. After the cells was incubated at 37° C. for 8 days, a CELLTITER-GLO detection solution (100 μL) was added. The cells were mixed on an orbital shaker for 5 min and then incubated for additional 10 min. The plate was read with an ENVISION reader. The results are summarized in Table 2, where the symbol “+++” represents a value no greater than 1 μM, the symbol “++” represents a value greater than 1 μM but no greater than 10 μM, and the symbol “+” represents a value greater than 10 μM.

CDK6/cyclin D1 = CDK6/cyclin D1 (Homo sapiens (Human), UniProt Q00534); experiment: CDK6 Caliper Mobility Shift assay; assay type: biochemical
Chain of CDK6/cyclin D1 (Q00534 whole entry): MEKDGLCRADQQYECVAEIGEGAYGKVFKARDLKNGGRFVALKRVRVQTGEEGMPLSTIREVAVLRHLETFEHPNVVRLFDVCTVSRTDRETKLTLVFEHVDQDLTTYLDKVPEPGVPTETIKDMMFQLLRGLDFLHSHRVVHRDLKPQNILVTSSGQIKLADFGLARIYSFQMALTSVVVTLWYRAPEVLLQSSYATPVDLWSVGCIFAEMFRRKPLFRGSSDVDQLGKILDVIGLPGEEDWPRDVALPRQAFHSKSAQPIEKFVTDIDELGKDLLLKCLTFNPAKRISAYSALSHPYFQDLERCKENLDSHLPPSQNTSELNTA
Chain of CDK6/cyclin D1 (P24385 whole entry partner): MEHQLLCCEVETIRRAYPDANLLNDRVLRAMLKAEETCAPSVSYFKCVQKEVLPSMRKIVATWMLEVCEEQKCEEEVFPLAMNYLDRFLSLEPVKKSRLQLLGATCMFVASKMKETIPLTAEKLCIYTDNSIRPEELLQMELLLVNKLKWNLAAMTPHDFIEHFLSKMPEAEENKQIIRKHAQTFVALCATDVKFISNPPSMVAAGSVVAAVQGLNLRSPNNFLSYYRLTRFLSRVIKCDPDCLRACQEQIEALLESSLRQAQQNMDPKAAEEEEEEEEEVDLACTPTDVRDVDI
Experimental: (§1) A Caliper Mobility Shift assay was used to determine the inhibitory activities of a compound against CDK4/cyclin D1 and CDK6/cyclin D1 in their respective kinase buffers (CDK4: 20 mM HEPES, pH 7.5, and 0.01% Triton X-100; CDK6: 50 mM HEPES, pH 7.5, and 0.0015% BRIJ-35). The CDK4/cyclin D1 and CDK6/cyclin D1 were obtained from PROQINASE and CARNA, respectively. A FAM-labeled peptide was obtained from GL.
(§2) The compound at predetermined concentrations was pre-incubated with CDK4/cyclin D1 or CDK6/cyclin D1 in a 384-well microplate at room temperature for 10 min. The FAM-labeled peptide and ATP were subsequently added to initiate the kinase reactions. The final enzyme concentrations were 15 nM for CDK4 and 7.5 nM for CDK6. The final ATP concentrations were […] for CDK4 and […] for CDK6. The microplate was allowed to incubate at 28° C. The kinase reactions were stopped by adding a stop buffer (100 mM HEPES, pH 7.5, 0.012% BRIJ-35, 0.2% Coating Reagent 3 (Caliper Life Sciences), and […]). Conversion data were recorded and utilized to calculate the percent inhibition values for each compound and an IC50 value was then determined. The results are summarized in Table 1, where the symbol “***” represents a value no greater than 200 nM, the symbol “**” represents a value greater than 200 nM but no greater than 500 nM, and the symbol “*” represents a value greater than 500 nM.

CDK4/cyclin D1 = CDK4/cyclin D1 (Homo sapiens (Human), UniProt P11802); experiment: CDK4 Caliper Mobility Shift assay; assay type: biochemical
Chain of CDK4/cyclin D1 (P11802 whole entry): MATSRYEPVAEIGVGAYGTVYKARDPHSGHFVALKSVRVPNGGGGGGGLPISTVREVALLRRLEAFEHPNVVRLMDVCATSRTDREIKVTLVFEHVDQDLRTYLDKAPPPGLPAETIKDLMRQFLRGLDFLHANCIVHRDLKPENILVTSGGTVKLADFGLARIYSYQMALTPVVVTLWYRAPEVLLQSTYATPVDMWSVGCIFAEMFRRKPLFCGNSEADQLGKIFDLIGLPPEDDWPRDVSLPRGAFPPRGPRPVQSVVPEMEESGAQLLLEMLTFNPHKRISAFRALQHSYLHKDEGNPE
Chain of CDK4/cyclin D1 (P24385 whole entry partner): as the sequence (P24385 whole entry partner) above
Experimental: as §1, §2

SMILES | EC50 [1] | IC50 (CDK6/cyclin D1) | IC50 (CDK4/cyclin D1)
CCOC(=O)NS(=O)(=O)N1CCN(c2ccc(Nc3ncc4c(C)c(C(C)=O)c(=O)n(C5CCCC5)c4n3)nc2)CC1 [Compound A25, Ethyl ((4-(6-((6-acetyl-8-cyclopentyl-5-methyl-7-oxo-7,8-dihydropyrido[2,3-d]-pyrimidin-2-yl)amino)pyridin-3-yl)piperazin-1-yl)sulfonyl)carbamate] | 1000 to 10000 nM | ≤ 200 nM | 200 to 500 nM
COC(=O)NS(=O)(=O)N1CCN(c2ccc(Nc3ncc4c(C)c(C(C)=O)c(=O)n(C5CCCC5)c4n3)nc2)CC1 [Compound A26, Methyl ((4-(6-((6-acetyl-8-cyclopentyl-5-methyl-7-oxo-7,8-dihydropyrido[2,3-d]-pyrimidin-2-yl)amino)pyridin-3-yl)piperazin-1-yl)sulfonyl)carbamate] | 1000 to 10000 nM | ≤ 200 nM | ≤ 200 nM
CC(=O)c1c(C)c2cnc(Nc3ccc(N4CCN(S(=O)(=O)NC(=O)OC(C)C)CC4)cn3)nc2n(C2CCCC2)c1=O [Compound A27, Isopropyl ((4-(6-((6-acetyl-8-cyclopentyl-5-methyl-7-oxo-7,8-dihydropyrido[2,3-d]pyrimidin-2-yl)amino)pyridin-3-yl)piperazin-1-yl)sulfonyl)carbamate] | 1000 to 10000 nM | 200 to 500 nM | ≤ 200 nM
CC(=O)c1c(C)c2cnc(Nc3ccc(N4CCN(S(=O)(=O)NC(=O)C(N)C(C)C)CC4)cn3)nc2n(C2CCCC2)c1=O (stereo not drawn) [Compound A30, N-((4-(6-((6-Acetyl-8-cyclopentyl-5-methyl-7-oxo-7,8-dihydropyrido[2,3-d]-pyrimidin-2-yl)amino)pyridin-3-yl)piperazin-1-yl)sulfonyl)-2-amino-3-methylbutanamide] | ≤ 1000 nM | ≤ 200 nM | ≤ 200 nM
CC(=O)c1c(C)c2cnc(Nc3ccc(N4CCN(S(=O)(=O)NC(=O)[C@H]5CCCN5)CC4)cn3)nc2n(C2CCCC2)c1=O [Compound A33, (R)—N-((4-(6-((6-Acetyl-8-cyclopentyl-5-methyl-7-oxo-7,8-dihydropyrido[2,3-d]-pyrimidin-2-yl)amino)pyridin-3-yl)piperazin-1-yl)sulfonyl)pyrrolidine-2-carboxamide] | ≤ 1000 nM | ≤ 200 nM | ≤ 200 nM
CC(=O)NS(=O)(=O)N1CCN(c2ccc(Nc3ncc4c(C)c(C(C)=O)c(=O)n(C5CCCC5)c4n3)nc2)CC1 [Compound A34, N-((4-(6-((6-Acetyl-8-cyclopentyl-5-methyl-7-oxo-7,8-dihydropyrido[2,3-d]-pyrimidin-2-yl)amino)pyridin-3-yl)piperazin-1-yl)sulfonyl)acetamide] | > 10000 nM | ≤ 200 nM | ≤ 200 nM
CC(=O)c1c(C)c2cnc(Nc3ccc(N4CCN(S(=O)(=O)NC(=O)C(C)C)CC4)cn3)nc2n(C2CCCC2)c1=O [Compound A36, N-((4-(6-((6-Acetyl-8-cyclopentyl-5-methyl-7-oxo-7,8-dihydropyrido[2,3-d]-pyrimidin-2-yl)amino)pyridin-3-yl)piperazin-1-yl)sulfonyl)isobutyramide] | 1000 to 10000 nM | 200 to 500 nM | ≤ 200 nM
CCCC(=O)NS(=O)(=O)N1CCN(c2ccc(Nc3ncc4c(C)c(C(C)=O)c(=O)n(C5CCCC5)c4n3)nc2)CC1 [Compound A37, N-((4-(6-((6-Acetyl-8-cyclopentyl-5-methyl-7-oxo-7,8-dihydropyrido[2,3-d]-pyrimidin-2-yl)amino)pyridin-3-yl)piperazin-1-yl)sulfonyl)butyramide] | 1000 to 10000 nM | 200 to 500 nM | 200 to 500 nM
CC(=O)c1c(C)c2cnc(Nc3ccc(N4CCN(S(=O)(=O)NC(=O)C5CCC5)CC4)cn3)nc2n(C2CCCC2)c1=O [Compound A41, N-((4-(6-((6-Acetyl-8-cyclopentyl-5-methyl-7-oxo-7,8-dihydropyrido[2,3-d]-pyrimidin-2-yl)amino)pyridin-3-yl)piperazin-1-yl)sulfonyl)cyclobutanecarboxamide] | 1000 to 10000 nM | 200 to 500 nM | 200 to 500 nM
CC(=O)c1c(C)c2cnc(Nc3ccc(N4CCN(S(=O)(=O)NCCO)CC4)cn3)nc2n(C2CCCC2)c1=O [Compound A42, 4-(6-((6-Acetyl-8-cyclopentyl-5-methyl-7-oxo-7,8-dihydropyrido[2,3-d]-pyrimidin-2-yl)amino)pyridin-3-yl)-N-(2-hydroxyethyl)piperazine-1-sulfonamide] | 1000 to 10000 nM | ≤ 200 nM | ≤ 200 nM
COCCNS(=O)(=O)N1CCN(c2ccc(Nc3ncc4c(C)c(C(C)=O)c(=O)n(C5CCCC5)c4n3)nc2)CC1 [Compound A43, 4-(6-((6-Acetyl-8-cyclopentyl-5-methyl-7-oxo-7,8-dihydropyrido[2,3-d]-pyrimidin-2-yl)amino)pyridin-3-yl)-N-(2-methoxyethyl)piperazine-1-sulfonamide] | 1000 to 10000 nM | ≤ 200 nM | ≤ 200 nM
CC(=O)c1c(C)c2cnc(Nc3ccc(N4CCN(S(=O)(=O)N[C@H](C(=O)O)C(C)C)CC4)cn3)nc2n(C2CCCC2)c1=O [Compound A45, ((4-(6-((6-Acetyl-8-cyclopentyl-5-methyl-7-oxo-7,8-dihydropyrido[2,3-d]-pyrimidin-2-yl)amino)pyridin-3-yl)piperazin-1-yl)sulfonyl)-L-valine] | 1000 to 10000 nM | ≤ 200 nM | ≤ 200 nM
CCNS(=O)(=O)N1CCN(c2ccc(Nc3ncc4c(C)c(C(C)=O)c(=O)n(C5CCCC5)c4n3)nc2)CC1 [Compound A47, 4-(6-((6-Acetyl-8-cyclopentyl-5-methyl-7-oxo-7,8-dihydropyrido[2,3-d]-pyrimidin-2-yl)amino)pyridin-3-yl)-N-ethylpiperazine-1-sulfonamide] | 1000 to 10000 nM | ≤ 200 nM | ≤ 200 nM
CC(=O)c1c(C)c2cnc(Nc3ccc(N4CCN(S(=O)(=O)NC(C)C)CC4)cn3)nc2n(C2CCCC2)c1=O [Compound A48, 4-(6-((6-Acetyl-8-cyclopentyl-5-methyl-7-oxo-7,8-dihydropyrido[2,3-d]-pyrimidin-2-yl)amino)pyridin-3-yl)-N-isopropylpiperazine-1-sulfonamide] | 1000 to 10000 nM | ≤ 200 nM | ≤ 200 nM
CCCNS(=O)(=O)N1CCN(c2ccc(Nc3ncc4c(C)c(C(C)=O)c(=O)n(C5CCCC5)c4n3)nc2)CC1 [Compound A49, 4-(6-((6-Acetyl-8-cyclopentyl-5-methyl-7-oxo-7,8-dihydropyrido[2,3-d]-pyrimidin-2-yl)amino)pyridin-3-yl)-N-propylpiperazine-1-sulfonamide] | > 10000 nM | 200 to 500 nM | 200 to 500 nM
CC(=O)c1c(C)c2cnc(Nc3ccc(N4CCN(S(=O)(=O)N5CCOCC5)CC4)cn3)nc2n(C2CCCC2)c1=O [Compound A51, 6-Acetyl-8-cyclopentyl-5-methyl-2-((5-(4-(morpholinosulfonyl)piperazin-1-yl)-pyridin-2-yl)amino)pyrido[2,3-d]pyrimidin-7(8H)-one] | 1000 to 10000 nM | ≤ 200 nM | ≤ 200 nM
CC(=O)c1c(C)c2cnc(Nc3ccc(N4CCN(S(=O)(=O)N5CC(O)C5)CC4)cn3)nc2n(C2CCCC2)c1=O [Compound A52, 6-Acetyl-8-cyclopentyl-2-((5-(4-((3-hydroxyazetidin-1-yl)sulfonyl)piperazin-1-yl)pyridin-2-yl)amino)-5-methylpyrido[2,3-d]pyrimidin-7(8H)-one] | 1000 to 10000 nM | ≤ 200 nM | ≤ 200 nM
CC(=O)c1c(C)c2cnc(Nc3ccc(N4CCN(S(=O)(=O)OCOC(=O)c5ccccc5)CC4)cn3)nc2n(C2CCCC2)c1=O [Compound B3, (((4-(6-((6-Acetyl-8-cyclopentyl-5-methyl-7-oxo-7,8-dihydropyrido[2,3-d]-pyrimidin-2-yl)amino)pyridin-3-yl)piperazin-1-yl)sulfonyl)oxy)methyl benzoate] | 1000 to 10000 nM | ≤ 200 nM | ≤ 200 nM

Reference: US20250289813A1, “CDK INHIBITORS, PHARMACEUTICAL COMPOSITIONS, AND THERAPEUTIC APPLICATIONS” (ONQUALITY PHARMACEUTICALS CHINA LTD., priority 2022, published 2025)
